Data published in patent USRE39497E1, “Storage of materials” (Nektar Therapeutics, priority 1989, dated 2007).

What was measured:
[1] = L. Slade and H. Levine, Pure Appl. Chem. 60 1841 (1988); cited from earlier work
[2] = Glass transition temperature Tg (differential scanning calorimeter); assay type: physicochemical; conditions: determined by the applicant
Text: Tg values can be determined with a differential scanning calorimeter and can be detected as a point at which a plot of heat input against temperature passes through an inflection point—giving a maximum of the first temperature derivative.

Tg value [2] [°C]	Molecule	Tg [1] [°C]
	maltotriose	76
55	OC[C@H]1O[C@@](CO)(O[C@H]2O[C@H](CO)[C@@H](O)[C@H](O)[C@H]2O)[C@@H](O)[C@@H]1O [sucrose]	
	OC[C@H]1O[C@H](O[C@H]2[C@H](O)[C@@H](O)C(O)O[C@@H]2CO)[C@H](O)[C@@H](O)[C@@H]1O (mixture of isomers) [maltose]	43
